{
  "source": "patent US7759345B2",
  "about": "“Antitumoral derivatives of ET-743” (priority 2001, dated 2010)",
  "key": {"P-388": {"tested_on": "P-388", "assay": "Inhibition of cell growth by counting cells, P-388", "type": "cell-based, mouse", "conditions": "Mus musculus, P388, 72 h, read-out: IC50 (molar) P-388", "method_in_brief": "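IC50 is the sample concentration halving growth, taken from dose-response curves of cell counts (Coulter counter, duplicate wells) relative to drug-free cultures. P-388 (DBA/2 mouse lymphoid neoplasm) cells plated at 1×10^4 per well in EMEM with 5% FCS plus test sample.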"}, "A-549": {"tested_on": "A-549", "assay": "Inhibition of cell growth by counting cells, A-549", "type": "cell-based, human", "conditions": "Homo sapiens, A549, 72 h, read-out: IC50 (molar) A-549", "method_in_brief": "(§1)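 Growth inhibition by direct cell counting: exponentially growing cells treated 3 days with compound at 37° C; IC50 derived from dose-response of net cells per well.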"}, "HT-29": {"tested_on": "HT-29", "assay": "Inhibition of cell growth by counting cells, HT-29", "type": "cell-based, human", "conditions": "Homo sapiens, HT-29, 72 h, read-out: IC50 (molar) HT-29", "method_in_brief": "as §1"}, "MEL-28": {"tested_on": "MEL-28", "assay": "Inhibition of cell growth by counting cells, MEL-28", "type": "cell-based, human", "conditions": "Homo sapiens, SK-MEL-28, 72 h, read-out: IC50 (molar) MEL-28", "method_in_brief": "as §1"}, "DU-145": {"tested_on": "DU-145", "assay": "Inhibition of cell growth by counting cells, DU-145", "type": "cell-based, human", "conditions": "Homo sapiens, DU-145, 72 h, read-out: IC50 (molar) DU-145", "protocol": "1°.—Inhibition of Cell Growth by Counting Cells.\nThis form of the assay employs 24 well multidishes of 16 mm diameter (Bergeron, 1984; Schroeder, 1981). The tumor cell lines employed are: P-388 (ATCC CCL 46), suspension culture of a lymphoid neoplasm from a DBA/2 mouse; A-549 (ATCC CCL 185), monolayer culture of a human lung carcinoma; HT-29 (ATCC HTB-38), monolayer culture of a human colon carcinoma; MEL-28 (ATCC HTB-72), monolayer culture of a human melanoma and DU-145 (ATCC HTB-81), monolayer culture of a human prostate carcinoma.\nCells were maintained, in logarithmic phase of growth in Eagle's Minimum Essential Medium, with Earle's Balanced Salts, with non-essential amino acids, with 2.0 mM L-Glutamine, without sodium bicarbonate (EMEM/neaa), supplemented with 10% Fetal Calf Serum (FCS), 10^−2 M. sodium bicarbonate and 0.1 U/l penicillin G+0.1 g/l streptomycin sulfate. For the experiments, cells are harvested from subconfluent cultures using trypsin and resuspended in fresh medium before plating.\nA-549, HT-29, MEL-28 and DU-145 cells were seeded into 16 mm diameter wells at 1×10^4 cells per well in 1 ml aliquots of EMEM 5% FCS containing different concentrations of the sample to be tested. A separate set of cultures without drug was seeded as control of growth, to ensure that cells remained in exponential phase of growth. All determinations are carrying out in duplicate. After three days of incubation at 37° C., 5% CO2 in a 98% humid atmosphere cells were stained with 0.1% crystal violet. An approximately IC50 was determined by comparing the growth in wells with drug to the growth in wells control.\nFor quantifying the activity, after the incubation time, cells are trypsinized and counted in a Coulter Counter ZM. All counts (net cells per well), represent the average of duplicate wells. % G, percent of growth relative to cultures without drug. The results of these assays are used to generate dose-response curves from which more precise IC50 values are determined (sample concentration which produces 50% cell growth inhibition).\nObtained results may predict the usefulness of a certain drug as a potential cancer treatment. For this technique, compounds which show IC50 values smaller than 1 μg/ml are selected to continue with further studies. IC50's data allow to predict that not only could a drug be cystostatic, but also it could have a potential in terms of tumor reduction."}},
  "note": "Read-outs that look alike come from different tables or passages of the source.",
  "data": [
    {"smiles": "CCCCCCCCCCCCCCCC(=O)Oc1c(C)c2c(c3c1[C@H]1SC[C@]4(NCCc5cc(OC(=O)OC(C)(C)C)c(OC)cc54)C(=O)OC[C@@H]3N3C1[C@H]1c4c(cc(C)c(OC)c4OC(=O)CCCCCCCCCCCCCCC)C[C@@H]([C@@H]3C#N)N1C)OCO2", "note": "(some centres unmarked) [Compound 122]", "values": [
      {"measurement": "IC50", "setting": "P-388; three days of incubation", "value": 830, "unit": "nM"},
      {"measurement": "IC50", "setting": "A-549; three days of incubation", "value": 830, "unit": "nM"},
      {"measurement": "IC50", "setting": "HT-29; three days of incubation", "value": 830, "unit": "nM"},
      {"measurement": "IC50", "setting": "MEL-28; three days of incubation", "value": 830, "unit": "nM"},
      {"measurement": "IC50", "setting": "DU-145; three days of incubation", "value": 830, "unit": "nM"}
    ]},
    {"smiles": "COc1cc2c(cc1OC(=O)OC(C)(C)C)CCN[C@]21CS[C@@H]2c3c(OCc4ccccc4)c(C)c4c(c3[C@H](COC1=O)N1C2[C@H]2c3c(cc(C)c(OC)c3O)C[C@@H]([C@@H]1C#N)N2C)OCO4", "note": "(some centres unmarked) [Compound 134]", "values": [
      {"measurement": "IC50", "setting": "P-388", "value": 0.544, "unit": "nM"},
      {"measurement": "IC50", "setting": "A-549", "value": 0.544, "unit": "nM"},
      {"measurement": "IC50", "setting": "HT-29", "value": 0.544, "unit": "nM"},
      {"measurement": "IC50", "setting": "MEL-28", "value": 0.544, "unit": "nM"},
      {"measurement": "IC50", "setting": "DU-145", "value": 0.544, "unit": "nM"}
    ]},
    {"smiles": "COc1cc2c(cc1OC(=O)OC(C)(C)C)CCN[C@]21CS[C@@H]2c3c(OCc4ccccc4)c(C)c4c(c3[C@H](COC1=O)N1C2[C@H]2c3c(cc(C)c(OC)c3OCc3ccccc3)C[C@@H]([C@@H]1C#N)N2C)OCO4", "note": "(some centres unmarked) [Compound 135]", "values": [
      {"measurement": "IC50", "setting": "P-388", "value": 4.96, "unit": "nM"},
      {"measurement": "IC50", "setting": "A-549", "value": 4.96, "unit": "nM"},
      {"measurement": "IC50", "setting": "HT-29", "value": 4.96, "unit": "nM"},
      {"measurement": "IC50", "setting": "MEL-28", "value": 4.96, "unit": "nM"},
      {"measurement": "IC50", "setting": "DU-145", "value": 4.96, "unit": "nM"}
    ]},
    {"smiles": "COc1cc2c(cc1O)CCN[C@]21CS[C@@H]2c3c(O)c(C)c4c(c3[C@H](COC1=O)N1C2[C@H]2c3c(cc(C)c(OC)c3O)C[C@@H]([C@@H]1C#N)N2C)OCO4", "note": "(some centres unmarked) [Compound 136]", "values": [
      {"measurement": "IC50", "setting": "P-388; three days of incubation", "value": 0.137, "unit": "nM"},
      {"measurement": "IC50", "setting": "A-549; three days of incubation", "value": 0.137, "unit": "nM"},
      {"measurement": "IC50", "setting": "HT-29; three days of incubation", "value": 0.137, "unit": "nM"},
      {"measurement": "IC50", "setting": "MEL-28; three days of incubation", "value": 0.137, "unit": "nM"},
      {"measurement": "IC50", "setting": "DU-145; three days of incubation", "value": 0.137, "unit": "nM"}
    ]},
    {"smiles": "COc1cc2c(cc1O)CCN[C@]21CS[C@@H]2c3c(OC(=O)/C=C/c4ccccc4)c(C)c4c(c3[C@H](COC1=O)N1C2[C@H]2c3c(cc(C)c(OC)c3O)C[C@@H]([C@@H]1C#N)N2C)OCO4", "note": "(some centres unmarked) [Compound 137]", "values": [
      {"measurement": "IC50", "setting": "P-388; three days of incubation", "value": 0.117, "unit": "nM"},
      {"measurement": "IC50", "setting": "A-549; three days of incubation", "value": 0.117, "unit": "nM"},
      {"measurement": "IC50", "setting": "HT-29; three days of incubation", "value": 0.117, "unit": "nM"},
      {"measurement": "IC50", "setting": "MEL-28; three days of incubation", "value": 0.117, "unit": "nM"},
      {"measurement": "IC50", "setting": "DU-145; three days of incubation", "value": 0.117, "unit": "nM"}
    ]},
    {"smiles": "CCCCCCCC(=O)Oc1c(C)c2c(c3c1[C@H]1SC[C@]4(NCCc5cc(O)c(OC)cc54)C(=O)OC[C@@H]3N3C1[C@H]1c4c(cc(C)c(OC)c4O)C[C@@H]([C@@H]3C#N)N1C)OCO2", "note": "(some centres unmarked) [Compound 144]", "values": [
      {"measurement": "IC50", "setting": "P-388; three days of incubation", "value": 1.17, "unit": "nM"},
      {"measurement": "IC50", "setting": "A-549; three days of incubation", "value": 1.17, "unit": "nM"},
      {"measurement": "IC50", "setting": "HT-29; three days of incubation", "value": 1.17, "unit": "nM"},
      {"measurement": "IC50", "setting": "MEL-28; three days of incubation", "value": 1.17, "unit": "nM"},
      {"measurement": "IC50", "setting": "DU-145; three days of incubation", "value": 1.17, "unit": "nM"}
    ]},
    {"smiles": "CCCCCCCCCCCCCCCC(=O)Oc1c(C)c2c(c3c1[C@H]1SC[C@]4(NCCc5cc(O)c(OC)cc54)C(=O)OC[C@@H]3N3C1[C@H]1c4c(cc(C)c(OC)c4O)C[C@@H]([C@@H]3C#N)N1C)OCO2", "note": "(some centres unmarked) [Compound 146]", "values": [
      {"measurement": "IC50", "setting": "P-388; three days of incubation", "value": 103, "unit": "nM"},
      {"measurement": "IC50", "setting": "A-549; three days of incubation", "value": 103, "unit": "nM"},
      {"measurement": "IC50", "setting": "HT-29; three days of incubation", "value": 103, "unit": "nM"},
      {"measurement": "IC50", "setting": "MEL-28; three days of incubation", "value": 103, "unit": "nM"},
      {"measurement": "IC50", "setting": "DU-145; three days of incubation", "value": 103, "unit": "nM"}
    ]},
    {"smiles": "COc1cc2c(cc1O)CCN[C@]21CS[C@@H]2c3c(OC(=O)C(F)(F)F)c(C)c4c(c3[C@H](COC1=O)N1C2[C@H]2c3c(cc(C)c(OC)c3O)C[C@@H]([C@@H]1C#N)N2C)OCO4", "note": "(some centres unmarked) [Compound 159]", "values": [
      {"measurement": "IC50", "setting": "P-388; three days of incubation", "value": 1.37, "unit": "nM"},
      {"measurement": "IC50", "setting": "A-549; three days of incubation", "value": 1.37, "unit": "nM"},
      {"measurement": "IC50", "setting": "HT-29; three days of incubation", "value": 1.37, "unit": "nM"},
      {"measurement": "IC50", "setting": "MEL-28; three days of incubation", "value": 1.37, "unit": "nM"},
      {"measurement": "IC50", "setting": "DU-145; three days of incubation", "value": 1.37, "unit": "nM"}
    ]},
    {"smiles": "CCCCCCCC(=O)Oc1c(C)c2c(c3c1[C@H]1SC[C@]4(NCCc5cc(O)c(OC)cc54)C(=O)OC[C@@H]3N3C1[C@H]1c4c(cc(C)c(OC)c4O)C[C@@H]([C@@H]3O)N1C)OCO2", "note": "(some centres unmarked) [Compound 168]", "values": [
      {"measurement": "IC50", "setting": "P-388; three days of incubation", "value": 0.591, "unit": "nM"},
      {"measurement": "IC50", "setting": "A-549; three days of incubation", "value": 0.591, "unit": "nM"},
      {"measurement": "IC50", "setting": "HT-29; three days of incubation", "value": 0.591, "unit": "nM"},
      {"measurement": "IC50", "setting": "MEL-28; three days of incubation", "value": 0.591, "unit": "nM"},
      {"measurement": "IC50", "setting": "DU-145; three days of incubation", "value": 0.591, "unit": "nM"}
    ]},
    {"smiles": "COc1cc2c(cc1OC(C)=O)CCN[C@]21CS[C@@H]2c3c(OC(C)=O)c(C)c4c(c3[C@H](COC1=O)N1C2[C@H]2c3c(cc(C)c(OC)c3O)C[C@@H]([C@@H]1C#N)N2C(=O)OC(C)(C)C)OCO4", "note": "(some centres unmarked) [Compound 191]", "values": [
      {"measurement": "IC50", "setting": "P-388; three days of incubation", "value": 1.11, "unit": "nM"},
      {"measurement": "IC50", "setting": "A-549; three days of incubation", "value": 1.11, "unit": "nM"},
      {"measurement": "IC50", "setting": "HT-29; three days of incubation", "value": 1.11, "unit": "nM"},
      {"measurement": "IC50", "setting": "MEL-28; three days of incubation", "value": 1.11, "unit": "nM"},
      {"measurement": "IC50", "setting": "DU-145; three days of incubation", "value": 1.11, "unit": "nM"}
    ]}
  ]
}
